Measurements from patent US9249161B2, “Bromodomain inhibitors and uses thereof” (Constellation Pharmaceuticals, Inc., priority 2010, dated 2016).
Read-outs that look alike come from different tables or passages of the source.

Target: T1, BRD4(BD1) (Homo sapiens, UniProt O60885)
T1 construct: His; made in house
Assay: BRD4 Alphalisa binding assay
Experimental: IC50 Measurements for Inhibitors Using BRD4 Alphalisa Binding Assay
His/[…] epitope tagged BRD4 BD142-168 was cloned, expressed and purified to homogeneity. BRD4 binding and inhibition was assessed by monitoring the engagement of biotinylated H4-tetraacetyl peptide (Millipore #12-379) with the target using the AlphaLisa technology (Perkin-Elmer). Specifically, in a 384 well ProxiPlate BRD4(BD1) (30 nM final) was combined with peptide (200 nM final) in 40 mM HEPES (pH 7.0), 40 mM NaCl, 1 mM DTT, 0.01% (w/v) BSA, and 0.008% (w/v) Brij-35 either in the presence of DMSO (final 1.2% DMSO) or compound dilution series in DMSO. After 20 minute incubation at room temperature Alpha streptavidin donor beads and AlphaLisa anti-Flag acceptor beads were added to a final concentration of 10 ug/mL each. After three hours equilibration plates were read on an Envision instrument and IC50s calculated using a four parameter non-linear curve fit.

[1] = BRD4(BD1) 30 nM, biotinylated H4-tetraacetyl peptide 200 nM, read-out: BRD4 Alphascreen IC50

Structure (SMILES)	IC50 [1]	IC50
Cc1sc2c(c1C)C(c1ccc(Cl)cc1)=NC1(CC1)c1nncn1-2 [Compound 217, 4′-(4-Chlorophenyl)-2′,3′-dimethylspiro[cyclopropane-1,6′-thieno[3,2-f][1,2,4]triazolo[4,3-a][1,4]diazepine]]	> 1000 nM	–
Cc1nsc2c1C(c1ccc(Cl)cc1)=NC1(CC1)c1nnc(C)n1-2 [Compound 213, 4′-(4-chlorophenyl)-3′,9′-dimethylspiro[cyclopropane-1,6′-isothiazolo[4,5-f][1,2,4]triazolo[4,3-a][1,4]diazepine]]	> 1000 nM	–
Cc1sc2c(c1C)C(c1ccc(Cl)cc1)=N[C@@]1(C[C@@H]1C)C(=O)N2 [Compound 218, (1R,2S)-5′-(4-chlorophenyl)-2,6′,7′-trimethylspiro[cyclopropane-1,3′-thieno[2,3-e][1,4]diazepin]-2′(1′H)-one]	> 1000 nM	–
Cc1noc2c1-c1cn(C)nc1C(c1ccc(Cl)cc1)=NC2 [Compound 265, 6-(4-chlorophenyl)-1,8-dimethyl-4,8-dihydroisoxazolo[5,4-c]pyrazolo[4,3-e]azepine]	> 1000 nM	–
Cc1sc2c(c1C)C(c1ccc(Cl)cc1)=NC1(CNC1)c1nnc(C)n1-2 [Compound 224, 4′-(4-chlorophenyl)-2′,3′,9′-trimethylspiro[azetidine-3,6′-thieno[3,2-f][1,2,4]triazolo[4,3-a][1,4]diazepine]]	> 1000 nM	–
CCNC(=O)[C@H]1C[C@@]12N=C(c1ccc(Cl)cc1)c1c(sc(C)c1C)-n1c(C)nnc12 [Compound 211, (1R,2S)-4′-(4-chlorophenyl)-N-ethyl-2′,3′,9′-trimethylspiro[cyclopropane-1,6′-thieno[3,2-f][1,2,4]triazolo[4,3-a][1,4]diazepine]-2-carboxamide]	> 1000 nM	–
Cc1nnc2n1-c1ccccc1C(c1ccc(Cl)cc1)=NC21CC1 [Compound 216, 6-(4-chlorophenyl)-1-methylspiro[benzo[f][1,2,4]triazolo[4,3-a][1,4]diazepine-4,1′-cyclopropane]]	< 500 nM	–
Cc1noc2c1-c1ccc(Cl)cc1C(c1ccc(F)cc1)=NC21CC1 [Compound 250, 8-Chloro-6-(4-fluorophenyl)-1-methylspiro[benzo[c]isoxazolo[4,5-e]azepine-4,1′-cyclopropane]]	> 1000 nM	–
Cc1sc2c(c1C)C(c1ccc(Cl)cc1)=N[C@]1(C[C@H]1C)c1n[nH]c(=O)n1-2 [Compound 222, (1S,2R)-4′-(4-chlorophenyl)-2,2′,3′-trimethylspiro[cyclopropane-1,6′-thieno[3,2-f][1,2,4]triazolo[4,3-a][1,4]diazepin]-9′(8′H)-one 2,2,2-trifluoroacetic acid]	> 1000 nM	–
CCNC(=O)[C@@H]1C[C@]12N=C(c1ccc(Cl)cc1)c1c(sc(C)c1C)-n1c(C)nnc12 [Compound 204, (1S,2R)-4′-(4-chlorophenyl)-N-ethyl-2′,3′,9′-trimethylspiro[cyclopropane-1,6′-thieno[3,2-f][1,2,4]triazolo[4,3-a][1,4]diazepine]-2-carboxamide]	> 1000 nM	–
CCNC(=O)[C@@H]1C[C@@]12N=C(c1ccc(Cl)cc1)c1c(sc(C)c1C)-n1c(C)nnc12 [Compound 212, (1R,2R)-4′-(4-Chlorophenyl)-N-ethyl-2′,3′,9′-trimethylspiro-[cyclopropane-1,6′-thieno[3,2-f][1,2,4]triazolo[4,3-a][1,4]diazepine]-2-carboxamide]	> 1000 nM	–
Cc1sc2c(c1C)C(c1ccc(Cl)cc1)=NC1(CC1)c1nnc(C)n1-2 [Compound 214, 4′-(4-Chlorophenyl)-2′,3′,9′-trimethylspiro[cyclopropane-1,6′-thieno[3,2-f][1,2,4]triazolo[4,3-a][1,4]diazepine]]	–	< 500 nM

Second part, led by results:

IC50 [1]	Structure (SMILES)	IC50
< 500 nM	Cc1sc2c(c1C)C(c1ccc(Cl)cc1)=N[C@@]1(C[C@@H]1C)c1nnc(C)n1-2 [Compound 219, (1R,2S)-4′-(4-chlorophenyl)-2,2′,3′,9′-tetramethylspiro-[cyclopropane-1,6′-thieno[3,2-f][1,2,4]triazolo[4,3-a][1,4]diazepine]]	–
< 500 nM	Cc1sc2c(c1C)C(c1ccc(Cl)cc1)=NC1(CCC1)c1nnc(C)n1-2 [Compound 223, 4′-(4-chlorophenyl)-2′,3′,9′-trimethylspiro[cyclobutane-1,6′-thieno[3,2-f][1,2,4]triazolo[4,3-a][1,4]diazepine]]	–
< 500 nM	Cc1sc2c(c1C)C(c1ccc(Cl)cc1)=NC1(CC1C)c1nnc(C)n1-2 (racemic) [Compound 215, 4′-(4-chlorophenyl)-2,2′,3′,9′-tetramethylspiro[cyclopropane-1,6′-thieno[3,2-f][1,2,4]triazolo[4,3-a][1,4]diazepine]]	–
< 500 nM	CCNC[C@@H]1C[C@]12N=C(c1ccc(Cl)cc1)c1c(sc(C)c1C)-n1c(C)nnc12 [Compound 208, N-(((1S,2S)-4′-(4-Chlorophenyl)-2′,3′,9′-trimethylspiro[cyclopropane-1,6′-thieno[3,2-f][1,2,4]triazolo[4,3-a][1,4]diazepin]-2-yl)methyl)ethanamine]	–
< 500 nM	Cc1sc2c(c1C)C(c1ccc(Cl)cc1)=N[C@]1(C[C@H]1C)c1nnc(C)n1-2 [Compound 220, (1S,2R)-4′-(4-chlorophenyl)-2,2′,3′,9′-tetramethyl-spiro[cyclopropane-1,6′-thieno[3,2-f][1,2,4]triazolo[4,3-a][1,4]diazepine]]	–
500 to 1000 nM	Cc1sc2c(c1C)C(c1ccc(Cl)cc1)=N[C@]1(C[C@H]1C(N)=O)c1nnc(C)n1-2 [Compound 205, (1S,2R)-4′-(4-Chlorophenyl)-2′,3′,9′-trimethylspiro[cyclo-propane-1,6′-thieno[3,2-f][1,2,4]triazolo[4,3-a][1,4]diazepine]-2-carboxamide]	–
< 500 nM	Cc1sc2c(c1C)C(c1ccc(Cl)cc1)=N[C@@]1(C[C@@H]1CO)c1nnc(C)n1-2 [Compound 210, ((1R,2S)-4′-(4-Chlorophenyl)-2′,3′,9′-trimethylspiro[cyclo-propane-1,6′-thieno[3,2-f][1,2,4]triazolo[4,3-a][1,4]diazepin]-2-yl)methanol]	–
< 500 nM	Cc1sc2c(c1C)C(c1ccc(Cl)cc1)=N[C@]1(C[C@H]1CN)c1nnc(C)n1-2 [Compound 206, ((1S,2S)-4′-(4-Chlorophenyl)-2′,3′,9′-trimethylspiro[cyclo-propane-1,6′-thieno[3,2-f][1,2,4]triazolo[4,3-a][1,4]diazepin]-2-yl)methanamine]	–
< 500 nM	COC[C@@H]1C[C@]12N=C(c1ccc(Cl)cc1)c1c(sc(C)c1C)-n1c(C)nnc12 [Compound 202, (1S,2R)-4′-(4-chlorophenyl)-2-(methoxymethyl)-2′,3′,9′-trimethylspiro[cyclopropane-1,6′-thieno[3,2-f][1,2,4]triazolo[4,3-a][1,4]diazepine]]	–
< 500 nM	CC(=O)NC[C@@H]1C[C@]12N=C(c1ccc(Cl)cc1)c1c(sc(C)c1C)-n1c(C)nnc12 [Compound 207, N-(((1S,2S)-4′-(4-Chlorophenyl)-2′,3′,9′-trimethylspiro[cyclopropane-1,6′-thieno[3,2-f][1,2,4]triazolo[4,3-a][1,4]diazepin]-2-yl)methyl)acetamide]	–
< 500 nM	Cc1sc2c(c1C)C(c1ccc(Cl)cc1)=NC1(COC1)c1nnc(C)n1-2 [Compound 226, 4′-(4-Chlorophenyl)-2′,3′,9′-trimethylspiro[oxetane-3,6′-thieno[3,2-f][1,2,4]triazolo[4,3-a][1,4]diazepine]]	–
< 500 nM	Cc1noc2c1-c1ccc(-c3ccc(N)nc3)cc1C(c1ccc(F)cc1)=NC21CC1 [Compound 251, 5-(6-(4-Fluorophenyl)-1-methylspiro[benzo[c]isoxazolo[4,5-e]azepine-4,1′-cyclopropan]-8-yl)pyridin-2-amine]	–
< 500 nM	COC[C@H]1C[C@@]12N=C(c1ccc(Cl)cc1)c1c(sc(C)c1C)-n1c(C)nnc12 [Compound 209, (1R,2S)-4′-(4-chlorophenyl)-2-(methoxymethyl)-2′,3′,9′-trimethylspiro[cyclopropane-1,6′-thieno[3,2-f][1,2,4]triazolo[4,3-a][1,4]diazepine]]	–
< 500 nM	Cc1sc2c(c1C)C(c1ccc(N)cc1)=N[C@]1(C[C@H]1C)c1nnc(C)n1-2 [Compound 221, 4-((1S,2R)-2,2′,3′,9′-tetramethylspiro[cyclopropane-1,6′-thieno[3,2-f][1,2,4]triazolo[4,3-a][1,4]diazepin]-4′-yl)aniline]	–
< 500 nM	Cc1sc2c(c1C)C(c1ccc(Cl)cc1)=N[C@]1(C[C@H]1CO)c1nnc(C)n1-2 [Compound 203, ((1S,2R)-4′-(4-chlorophenyl)-2′,3′,9′-trimethylspiro[cyclopropane-1,6′-thieno[3,2-f][1,2,4]triazolo[4,3-a][1,4]diazepin]-2-yl)methanol]	–
